Values belong to the compound of their own block, whether it stands above or below them.
What was measured:
[1] = tested on: LRRK2(WT) and LRRK2(G2019S); parameters: method as in PMID 34515301; conditions: cited from earlier work
[2] = LRRK2-IN-1 ref 18; HG-10-102-01 ref 19; cited from earlier work
[3] = target: T1, LRRK2^RCKW (Homo sapiens, UniProt Q5S007); assay: MS-based kinase activity assay (Rab8A phosphorylation); assay type: biochemical; conditions: 50 nM LRRK2^RCKW, 5 μM Rab8A, 1 mM ATP, ESI-MS readout
T1 construct: His6-Z (TEV site) (N, cleaved yes); made in house; host or cells: Sf9 insect cells (baculovirus)
T1 sequence (Q5S007 1327-2527): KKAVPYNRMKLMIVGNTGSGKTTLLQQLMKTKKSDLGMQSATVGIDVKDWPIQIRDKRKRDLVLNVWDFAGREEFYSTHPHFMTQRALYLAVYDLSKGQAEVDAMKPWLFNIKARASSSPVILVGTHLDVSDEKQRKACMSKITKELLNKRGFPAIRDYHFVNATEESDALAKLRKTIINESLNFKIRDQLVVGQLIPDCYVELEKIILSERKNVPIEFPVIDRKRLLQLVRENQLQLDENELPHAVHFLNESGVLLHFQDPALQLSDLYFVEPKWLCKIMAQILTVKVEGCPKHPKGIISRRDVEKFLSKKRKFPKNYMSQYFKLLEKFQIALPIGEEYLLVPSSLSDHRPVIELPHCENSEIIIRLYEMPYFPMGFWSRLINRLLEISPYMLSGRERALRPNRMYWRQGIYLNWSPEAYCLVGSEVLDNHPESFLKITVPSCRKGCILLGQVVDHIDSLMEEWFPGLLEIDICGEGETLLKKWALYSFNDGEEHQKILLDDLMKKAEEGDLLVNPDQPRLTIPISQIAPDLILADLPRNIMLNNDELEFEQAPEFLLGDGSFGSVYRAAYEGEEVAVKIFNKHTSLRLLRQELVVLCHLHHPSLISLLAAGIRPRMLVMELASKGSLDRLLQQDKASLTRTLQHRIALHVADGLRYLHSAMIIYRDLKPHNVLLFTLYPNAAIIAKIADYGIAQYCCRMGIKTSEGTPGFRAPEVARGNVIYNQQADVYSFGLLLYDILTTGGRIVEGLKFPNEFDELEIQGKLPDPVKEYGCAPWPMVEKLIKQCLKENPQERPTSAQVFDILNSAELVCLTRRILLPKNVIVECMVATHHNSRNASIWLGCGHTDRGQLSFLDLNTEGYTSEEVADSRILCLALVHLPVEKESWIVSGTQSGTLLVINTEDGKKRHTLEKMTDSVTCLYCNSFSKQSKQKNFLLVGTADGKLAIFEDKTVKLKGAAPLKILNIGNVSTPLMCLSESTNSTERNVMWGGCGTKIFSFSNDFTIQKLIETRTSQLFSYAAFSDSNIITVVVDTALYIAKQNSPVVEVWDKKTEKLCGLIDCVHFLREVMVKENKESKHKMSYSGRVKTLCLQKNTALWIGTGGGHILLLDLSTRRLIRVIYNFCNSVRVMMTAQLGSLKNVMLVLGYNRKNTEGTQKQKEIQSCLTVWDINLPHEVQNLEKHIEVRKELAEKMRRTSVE
From the text: To compare the activity of the selected LRRK2 inhibitors, we developed a mass spectrometry (MS)–based kinase activity assay using an established endogenous substrate. We subjected the Rab8A GTPase domain (residues 6 to 176) to LRRK2^RCKW phosphorylation in the presence of varying concentrations of a given inhibitor and directly quantified the amount of phosphorylated Rab8A (pRab8A) by ESI-MS (fig. S1C).
To determine the IC50 values for a set of LRRK2 inhibitors, the phosphorylation of the LRRK2 substrate Rab8A was assessed by applying an MS-based activity assay. LRRK2^RCKW protein (50 nM) was mixed with 5 μM substrate and varying concentrations of the inhibitors in assay buffer [20 mM Hepes (pH 7.4), 150 mM NaCl, 0.5 mM TCEP, 20 μM GDP, 2.5 mM MgCl2, and 0.5% glycerol]. The reaction was started by adding 1 mM ATP and incubated at room temperature (RT). […] Data were acquired using the MassHunter LC/MS Data Acquisition software and analyzed using the BioConfirm vB.08.00 tool (both Agilent Technology) (https://www.agilent.com/en/product/software-informatics/mass-spectrometry-software, RRID: SCR_016657). The peak intensities of the unphosphorylated and phosphorylated Rab8A species were quantified and the relative kinase activity was calculated. […]

[4] = tested on: LRRK2^KW (G2019S); assay: Differential scanning fluorimetry (DSF) thermal shift assay, G2019S mutant; assay type: binding; conditions: inhibitor 10 μM
Method: The assay was performed according to a previously established protocol ([37]). Briefly, a solution of 4 μM LRRK2^KW protein in assay buffer [20 mM Hepes (pH 7.4), 150 mM NaCl, 0.5 mM Tris (2-carboxyethyl) phosphine (TCEP), 20 μM GDP, 2.5 mM MgCl2, and 0.5% glycerol] was mixed 1:1000 with SYPRO Orange (Sigma-Aldrich). The inhibitors to be tested were added to a final concentration of 10 μM. Twenty microliters of each sample were placed in a 96-well plate and heated gradually from 25° to 95°C. Fluorescence was monitored using an MX3005P real-time PCR instrument (Stratagene) with excitation and emission filters set to 465 and 590 nm, respectively. Data were analyzed with the MxPro software.

Structure (SMILES): Cc1ccc(C(=O)Nc2ccc(CN3CCN(C)CC3)c(C(F)(F)F)c2)cc1C#Cc1cnc2[nH]ncc2c1 [GZD-824]
- IC50 for LRRK2(WT) lower than that for LRRK2(G2019S) ([1]; in vitro phosphorylation assay): ~ 4 fold

Structure (SMILES): CNc1nc(Nc2ccc(C(=O)N3CCOCC3)cc2OC)ncc1Cl [HG-10-102-01]
- brain penetrance [2]: brain penetrant

- IC50 (inhibition of Rab8A phosphorylation), in words [3]: high nanomolar range
Structure (SMILES): COc1cc(C(=O)N2CCC(N3CCN(C)CC3)CC2)ccc1Nc1ncc2c(n1)N(C)c1ccccc1C(=O)N2C [LRRK2-IN-1]
- brain penetrance [2]: low brain penetrance

Structure (SMILES): CC1CN(c2cc(-c3n[nH]c4ccc(OC5(C)CC5)cc34)ncn2)CC(C)O1 (stereo not drawn) [MLi-2]
- ΔTM [4]: 18 K
- inhibition of LRRK2(G2019S) better than LRRK2(WT) ([1]; purified full-length LRRK2, in vitro assay with a peptide kinase substrate): ~ 2 fold
